10 compounds from patent publication US20240343681A1, “MOLECULES HAVING PESTICIDAL UTILITY AND INTERMEDIATES AND PROCESSES RELATED THERETO” (priority 2021, published 2024) can be followed below.

This experiment deals with Beet Armyworm (Spodoptera exigua, LAPHEG) second instar larva. Description: Bioassay on beet armyworm (BAW), 128-well diet tray assay. As to conditions: 50 μg/cm^2 on artificial diet, 25° C., five days. In kind it is in vivo. The protocol: Example A: Bioassays on Beet Armyworm (Spodoptera exigua, LAPHEG) (“BAW”) and Cabbage Looper (Trichoplusia ni, TRIPNI) (“CL”)
Bioassays on BAW were conducted using a 128-well diet tray assay. One second instar BAW larva was placed in each well (8 wells total) of the diet tray that had been previously filled with 1 mL of artificial diet to which 50 μg/cm^2 of the test molecule (dissolved in 50 μL of 90:10 acetone-water mixture) had been applied (to each of eight wells) and then allowed to dry. Trays were covered with a clear self-adhesive cover, vented to allow gas exchange, and held at 25° C., 14:10 light-dark for five days. Percent mortality was recorded for the larvae in each well; activity in the eight wells was then averaged.
As for `O=C(Nc1cc(NC(=O)[C@H]2[C@H](c3cc(Cl)cc(Cl)c3)C2(Cl)Cl)ccc1Cl)c1cccc(F)c1` (racemic) [F66, trans-rac-N-(2-Chloro-5-(2,2-dichloro-3-(3,5-dichlorophenyl)cyclopropane-1-carboxamido)phenyl)-3-fluorobenzamide], the “activity against BAW (percent mortality, averaged over eight wells)” value is recorded as “exhibited activity”.

Consider `Cc1ccccc1C(=O)Nc1cc(NC(=O)[C@H]2[C@H](c3cc(Cl)cc(Cl)c3)C2(Cl)Cl)ccc1Cl` (racemic) [F73, trans-rac-N-(2-Chloro-5-(2,2-dichloro-3-(3,5-dichlorophenyl)cyclopropane-1-carboxamido)phenyl)-2-methylbenzamide], for which the “activity against BAW (percent mortality, averaged over eight wells)” value is “exhibited activity”.

Consider `Cc1cc(C)cc(C(=O)Nc2cc(NC(=O)[C@H]3[C@H](c4cc(Cl)cc(Cl)c4)C3(Cl)Cl)ccc2Cl)c1` (racemic) [F76, trans-rac-N-(2-Chloro-5-(2,2-dichloro-3-(3,5-dichlorophenyl)cyclopropane-1-carboxamido)phenyl)-3,5-dimethylbenzamide], for which the “activity against BAW (percent mortality, averaged over eight wells)” value was “exhibited activity”.

Consider `O=C(Nc1cc(NC(=O)[C@H]2[C@H](c3cc(Cl)cc(Cl)c3)C2(Cl)Cl)ccc1Cl)c1cccc(C(F)(F)F)c1` (racemic) [F81, trans-rac-N-(2-Chloro-5-(2,2-dichloro-3-(3,5-dichlorophenyl)cyclopropane-1-carboxamido)phenyl)-3-(trifluoromethyl)benzamide], for which the “activity against BAW (percent mortality, averaged over eight wells)” value was “exhibited activity”.

For `O=C(Nc1cc(NC(=O)[C@H]2[C@H](c3cc(Cl)cc(Cl)c3)C2(Cl)Cl)ccc1Cl)c1ccccc1` (racemic) [F87, trans-rac-N-(2-Chloro-5-(2,2-dichloro-3-(3,5-dichlorophenyl)cyclopropane-1-carboxamido)phenyl)benzamide], the “activity against BAW (percent mortality, averaged over eight wells)” value is listed as “exhibited activity”.

In the case of `O=C(Nc1cc(NC(=O)[C@H]2[C@H](c3cc(Cl)cc(Cl)c3)C2(Cl)Cl)ccc1Cl)c1cccc([N+](=O)[O-])c1` (racemic) [F88, trans-rac-N-(2-chloro-5-(2,2-dichloro-3-(3,5-dichlorophenyl)cyclopropane-1-carboxamido)phenyl)-3-nitrobenzamide], the “activity against BAW (percent mortality, averaged over eight wells)” value is “exhibited activity”.

In the case of `O=C(Nc1cc(NC(=O)[C@H]2[C@H](c3cc(Cl)cc(Cl)c3)C2(Cl)Cl)ccc1Cl)c1ccc([N+](=O)[O-])cc1` (racemic) [F89, trans-rac-N-(2-Chloro-5-(2,2-dichloro-3-(3,5-dichlorophenyl)cyclopropane-1-carboxamido)phenyl)-4-nitrobenzamide], the “activity against BAW (percent mortality, averaged over eight wells)” value was “exhibited activity”.

For `Cc1cc([N+](=O)[O-])ccc1C(=O)Nc1cc(NC(=O)[C@H]2[C@H](c3cc(Cl)cc(Cl)c3)C2(Cl)Cl)ccc1Cl` (racemic) [F90, trans-rac-N-(2-Chloro-5-(2,2-dichloro-3-(3,5-dichlorophenyl)cyclopropane-1-carboxamido)phenyl)-2-methyl-4-nitrobenzamide], the “activity against BAW (percent mortality, averaged over eight wells)” value is reported as “exhibited activity”.

Consider `C#Cc1ccc(C(=O)Nc2cc(NC(=O)[C@H]3[C@H](c4cc(Cl)cc(Cl)c4)C3(Cl)Cl)ccc2Cl)cc1` (racemic) [F91, trans-rac-N-(2-Chloro-5-(2,2-dichloro-3-(3,5-dichlorophenyl)cyclopropane-1-carboxamido)phenyl)-4-ethynylbenzamide], for which the “activity against BAW (percent mortality, averaged over eight wells)” value is listed as “exhibited activity”.

As for `CC(CC(=O)N(C)c1cc(NC(=O)C2C(c3cc(Cl)cc(Cl)c3)C2(Cl)Cl)ccc1Cl)C(F)(F)F` (racemic) [F92, trans-rac-2,2-dichloro-N-(4-chloro-3-(4,4,4-trifluoro-N,3-dimethylbutanamido)phenyl)-3-(3,5-dichlorophenyl)cyclopropane-1-carboxamide], the “activity against BAW (percent mortality, averaged over eight wells)” value was “exhibited activity”.
